Source: patent publication US10226045B2, “Azoline compounds” (priority 2014, dated 2019)
Where two headings read alike, the source gives them in different places.

Legend:
Type in all cases: in vivo
[1] = tested on: Green Peach Aphid (Myzus persicae); test: Green peach aphid, systemic test on artificial diet in microtiter plates; conditions: 72 h
From the text: B.2 Green Peach Aphid (Myzus persicae)
For evaluating control of green peach aphid (Myzus persicae) through systemic means the test unit consisted of 96-well-microtiter plates containing liquid artificial diet under an artificial mem brane.
The compounds were formulated using a solution containing 75% v/v water and 25% v/v DMSO. Different concentrations of formulated compounds were pipetted into the aphid diet, using a custom built pipetter, at two replications.
After application, 5-8 adult aphids were placed on the artificial membrane inside the microtiter plate wells. The aphids were then allowed to suck on the treated aphid diet and incubated at about 23±1° C. and about 50±5% relative humidity for 3 days. Aphid mortality and fecundity was then visually assessed.

[2] = tested on: Vetch Aphid (Megoura viciae); test: Vetch aphid, broad bean leaf disk test; conditions: foliar, 120 h
Protocol: B.3 Vetch Aphid (Megoura viciae)
For evaluating control of vetch aphid (Megoura viciae) through contact or systemic means the test unit consisted of 24-well-microtiter plates containing broad bean leaf disks.
The compounds were formulated using a solution containing 75% v/v water and 25% v/v DMSO. Different concentrations of formulated compounds were sprayed onto the leaf disks at 2.5 μl, using a custom built micro atomizer, at two replications.
After application, the leaf disks were air-dried and 5-8 adult aphids placed on the leaf disks inside the microtiter plate wells. The aphids were then allowed to suck on the treated leaf disks and incubated at about 23±1° C. and about 50±5% relative humidity for 5 days. Aphid mortality and fecundity was then visually assessed.

[3] = tested on: Orchid Thrips (dichromothrips corbetti); test: Orchid thrips, floral-immersion technique
Protocol: B.7 Orchid Thrips (dichromothrips corbetti)
Dichromothrips corbetti adults used for bioassay were obtained from a colony maintained continuously under laboratory conditions. For testing purposes, the test compound is diluted in a 1:1 mixture of acetone:water (vol:vol), plus Kinetic HV at a rate of 0.01% v/v.
Thrips potency of each compound was evaluated by using a floral-immersion technique. All petals of individual, intact orchid flowers were dipped into treatment solution and allowed to dry in Petri dishes. Treated petals were placed into individual re-sealable plastic along with about 20 adult thrips. All test arenas were held under continuous light and a temperature of about 28° C. for duration of the assay. After 3 days, the numbers of live thrips were counted on each petal. The percent mortality was recorded 72 hours after treatment.

[4] = tested on: Boll Weevil (Anthonomus grandis); test: Boll weevil, insect diet microtiter plate test; conditions: 120 h
Protocol: B.5 Boll Weevil (Anthonomus grandis)
For evaluating control of boll weevil (Anthonomus grandis) the test unit consisted of 96-well-microtiter plates containing an insect diet and 5-10 A. grandis eggs.
(§1) The compounds were formulated using a solution containing 75% v/v water and 25% v/v DMSO. Different concentrations of formulated compounds were sprayed onto the insect diet at 5 μl, using a custom built micro atomizer, at two replications.
After application, microtiter plates were incubated at about 25±1° C. and about 75±5% relative humidity for 5 days. Egg and larval mortality was then visually assessed.

[5] = tested on: Tobacco Budworm (Heliothis virescens); test: Tobacco budworm, insect diet microtiter plate test; conditions: 120 h
Protocol: B.4 Tobacco Budworm (Heliothis virescens)
For evaluating control of tobacco budworm (HeliothiS virescens) the test unit consisted of 96-well-microtiter plates containing an insect diet and 15-25 H. virescens eggs.
The compounds were formulated using a solution containing 75% v/v water and 25% v/v DMSO. Different concentrations of formulated compounds were sprayed onto the insect diet at 10 μl, using a custom built micro atomizer, at two replications.
(§2) After application, microtiter plates were incubated at about 28±1° C. and about 80±5% relative humidity for 5 days. Egg and larval mortality was then visually assessed.

[6] = tested on: Mediterranean Fruitfly (Ceratitis capitata); test: Mediterranean fruitfly, insect diet microtiter plate test; conditions: 120 h
Protocol: B.6 Mediterranean Fruitfly (Ceratitis capitata)
as §1, with “For evaluating control of Mediterranean fruitfly (CeratitiS capitata) the test unit consisted of microtiter plates containing an insect diet and 50-80 C. capitata eggs. The” for “The”
as §2

[7] = tested on: Diamond Back Moth (Plutella xylostella); test: Diamond back moth, cabbage leaf dip test; conditions: foliar
Protocol: B.1 Diamond Back Moth (Plutella xylostella)
The active compound was dissolved at the desired concentration in a mixture of 1:1 (vol:vol) distilled water:aceteone. Surfactant (Kinetic HV) was added at a rate of 0.01% (vol/vol). The test solution was prepared at the day of use.
Leaves of cabbage were dipped in test solution and air-dried. Treated leaves were placed in petri dishes lined with moist filter paper and inoculated with ten 3rd instar larvae. Mortality was recorded 72 hours after treatment.

[8] = tested on: Rice Green Leafhopper (Nephotettix virescens); test: Rice green leafhopper, sprayed rice seedlings; conditions: 72 h
Protocol: B.8 Rice Green Leafhopper (Nephotettix virescens)
Rice seedlings were cleaned and washed 24 hours before spraying. The active compounds were formulated in 1:1 acetone:water (vol:vol), and 0.01% vol/vol surfactant (Kinetic HV) was added. Potted rice seedlings were sprayed with 5-6 ml test solution, air dried, covered with Mylar cages cages and inoculated with 10 adults. Treated rice plants were kept at about 28-29° C. and relative humidity of about 50-60%. Percent mortality was recorded after 72 hours.

[9] = tested on: Red Spider Mite (Tetranychus kanzawai); test: Red spider mite, sprayed cowpea beans; conditions: 72 h
Protocol: B.9 Red Spider Mite (Tetranychus kanzawai)
The active compound was dissolved at the desired concentration in a mixture of 1:1 (vol:vol) distilled water:acetone. Add surfactant (Kinetic HV) was added at a rate of 0.01% (vol/vol). The test solution was prepared at the day of use.
Potted cowpea beans of 4-5 days of age were cleaned with tap water and sprayed with 1-2 ml of the test solution using air driven hand atomizer. The treated plants were allowed to air dry and afterwards inoculated with 30 or more mites by clipping a cassava leaf section from rearing population. Treated plants were placed inside a holding room at about 25-27° C. and about 50-60% relative humidity. Percent mortality was assessed 72 hours after treatment.

[10] = tested on: Brown Marmorated Stink Bug (Halyomorpha halys); test: Brown marmorated stink bug, sprayed peanuts and soybean seeds in cups; conditions: 120 h
Protocol: B.13 Brown Marmorated Stink Bug (Halyomorpha halys)
(§3) The active compound was dissolved at the desired concentration in a mixture of 1:1 (vol:vol) distilled water: acetone. Surfactant (Kinetic HV) was added at a rate of 0.01% (vol/vol). The test solution was prepared at the day of use.
Row peanuts and soybean seeds were placed into microwavable plastic cups and inoculated with five adult stage H. halys. Using a hand atomizer, approximately 1 ml solution is sprayed into each cup, insects and food present. A water source was provided (cotton wick with water). Each treatment is replicated 4-fold. Assay arenas are kept at about 25° C. Percent mortality was recorded after 5 days.

[11] = tested on: Green Soldier Stink Bug (Nezara viridula); test: Green soldier stink bug, sprayed soybean pods in Petri dishes; conditions: 120 h
Protocol: B.11 Green Soldier Stink Bug (Nezara viridula)
The active compound was dissolved at the desired concentration in a mixture of 1:1 (vol:vol) distilled water:acetone. Surfactant (Kinetic HV) was added at a rate of 0.01% (vol/vol). The test solution was prepared at the day of use.
Soybean pods were placed in glass Petri dishes lined with moist filter paper and inoculated with ten late 3rd instar N. viridula. Using a hand atomizer, approximately 2 ml solution is sprayed into each Petri dish. Assay arenas were kept at about 25° C. Percent mortality was recorded after 5 days.

[12] = tested on: Neotropical Brown Stink Bug (Euschistus heros); test: Neotropical brown stink bug, sprayed soybean pods in cups; conditions: 120 h
Protocol: B.12 Neotropical Brown Stink Bug (Euschistus heros)
as §3
Soybean pods were placed in microwavable plastic cups and inoculated with ten adult stage E. heros. Using a hand atomizer, approximately 1 ml solution is sprayed into each cup, insects and food present. A water source was provided (cotton wick with water). Each treatment was replicated 2-fold. Assay arenas were kept at about 25° C. Percent mortality was recorded after 5 days.

[13] = tested on: Southern Armyworm (Spodoptera eridania); test: Southern armyworm, sprayed lima bean plants; conditions: 96 h
Protocol: B.10 Southern Armyworm (Spodoptera eridania)
The active compounds were formulated in cyclohexanone as a 10,000 ppm solution supplied in tubes. The tubes were inserted into an automated electrostatic sprayer equipped with an atomizing nozzle and they served as stock solutions for which lower dilutions were made in 50% acetone:50% water (v/v). A nonionic surfactant (Kinetic®) was included in the solution at a volume of 0.01% (v/v).
Lima bean plants (variety Sieva) were grown 2 plants to a pot and selected for treatment at the 1st true leaf stage. Test solutions were sprayed onto the foliage by an automated electrostatic plant sprayer equipped with an atomizing spray nozzle. The plants were dried in the sprayer fume hood and then removed from the sprayer. Each pot was placed into perforated plastic bags with a zip closure. About 10 to 11 armyworm larvae were placed into the bag and the bags zipped closed. Test plants were maintained in a growth room at about 25° C. and about 20-40% relative humidity for 4 days, avoiding direct exposure to fluorescent light (24 hour photoperiod) to prevent trapping of heat inside the bags. Mortality and reduced feeding were assessed 4 days after treatment, compared to untreated control plants.

[14] = 2500 ppm, adult aphids on treated artificial diet, 3 days, in comparison with untreated controls, read-out: mortality
[15] = 2500 ppm, eggs on sprayed insect diet, egg and larval mortality after 5 days, in comparison with untreated controls, read-out: mortality

COC(=O)c1ccc(C2=NCC(c3cc(Cl)c(F)c(Cl)c3)(C(F)(F)F)C2)c2c1CCC2 (centres unmarked) [Compound 2-2, Methyl 7-[3-(3,5-dichloro-4-fluoro-phenyl)-3-(trifluoromethyl)-2,4-dihydropyrrol-5-yl]indane-4-carboxylate]
≥ 75%: mortality at 2500 ppm [1, 14] | mortality at 2500 ppm ([2]; 2500 ppm, adult aphids on sprayed broad bean leaf disks, 5 days, in comparison with untreated controls, read-out: mortality) | mortality at 300 ppm ([3]; 300 ppm, adult thrips on dipped orchid petals, 72 hours after treatment, in comparison with untreated controls, read-out: mortality) | mortality at 2500 ppm [4, 15] | mortality at 2500 ppm [5, 15]

O=C(NCC(F)(F)F)c1ccc(C2=NOC(c3cc(Cl)cc(Cl)c3)(C(F)(F)F)C2)c2c1CCCC2 (centres unmarked) [Compound 3-5, 8-[5-(3,5-dichlorophenyl)-5-(trifluoromethyl)-4H-isoxazol-3-yl]-N-(2,2,2-trifluoroethyl)tetralin-5-carboxamide]
≥ 75%: mortality at 2500 ppm [1] | mortality at 2500 ppm [2] | mortality at 300 ppm ([3]; Thrips, 72 h) | mortality at 2500 ppm [4] | mortality at 2500 ppm [6] | mortality at 300 ppm ([7]; 72 h) | mortality at 300 ppm [8] | mortality at 2500 ppm [5] | mortality at 300 ppm [9]

O=C(O)c1ccc(C2=NOC(c3cc(Cl)c(F)c(Cl)c3)(C(F)(F)F)C2)c2c1CCC2 (centres unmarked) [Compound 1-2, 7-[5-(3,5-Dichloro-4-fluoro-phenyl)-5-(trifluoromethyl)-4H-isoxazol-3-yl]indane-4-carboxylic acid]
≥ 75%: mortality at 2500 ppm [4] | mortality at 300 ppm ([7]; 72 h) | mortality at 2500 ppm [5]

O=C(NCc1ccccn1)c1ccc(C2=NOC(c3cc(Cl)cc(Cl)c3)(C(F)(F)F)C2)c2c1CCC2 (centres unmarked) [Compound 1-27, 7-[5-(3,5-dichlorophenyl)-5-(trifluoromethyl)-4H-isoxazol-3-yl]-N-(2-pyridylmethyl)indane-4-carboxamide]
≥ 75%: mortality at 100 ppm [10] | mortality at 2500 ppm [1] | mortality at 2500 ppm [2] | mortality at 300 ppm ([3]; Thrips, 72 h) | mortality at 2500 ppm [4] | mortality at 2500 ppm [6] | mortality at 300 ppm [11] | mortality at 300 ppm ([7]; 72 h) | mortality at 300 ppm [8] | mortality at 2500 ppm [5] | mortality at 300 ppm [9] | mortality at 100 ppm [12] | mortality at 1 ppm [13]

COC(=O)c1ccc(C2=NOC(c3cc(Cl)c(F)c(Cl)c3)(C(F)(F)F)C2)c2c1CCC2 (centres unmarked) [Compound 1-1, Methyl 7-[5-(3,5-dichloro-4-fluoro-phenyl)-5-(trifluoromethyl)-4H-isoxazol-3-yl]indane-4-carboxylate]
≥ 75%: mortality at 2500 ppm [2] | mortality at 300 ppm ([3]; Thrips, 72 h) | mortality at 2500 ppm [4] | mortality at 2500 ppm [6] | mortality at 300 ppm ([7]; 72 h) | mortality at 2500 ppm [5]

O=C(O)c1ccc(C2=NCC(c3cc(Cl)c(F)c(Cl)c3)(C(F)(F)F)C2)c2c1CCC2 (centres unmarked) [Compound 2-1, 7-[3-(3,5-Dichloro-4-fluoro-phenyl)-3-(trifluoromethyl)-2,4-dihydropyrrol-5-yl]indane-4-carboxylic acid]
≥ 75%: mortality at 2500 ppm [1, 14] | mortality at 2500 ppm [4, 15] | mortality at 300 ppm ([7]; 300 ppm, 3rd instar larvae on dipped cabbage leaves, 72 hours after treatment, in comparison with untreated controls, read-out: mortality) | mortality at 2500 ppm [5, 15]

O=C(NCC1CC1)c1ccc(C2=NOC(c3cc(Cl)c(F)c(Cl)c3)(C(F)(F)F)C2)c2c1CCC2 (centres unmarked) [Compound 1-3, N-(Cyclopropylmethyl)-7-[5-(3,5-dichloro-4-fluoro-phenyl)-5-(trifluoromethyl)-4H-isoxazol-3-yl]indane-4-carboxamide]
≥ 75%: mortality at 100 ppm [10] | mortality at 2500 ppm [1] | mortality at 2500 ppm [2] | mortality at 300 ppm ([3]; Thrips, 72 h) | mortality at 2500 ppm [4] | mortality at 2500 ppm [6] | mortality at 300 ppm [11] | mortality at 300 ppm ([7]; 72 h) | mortality at 300 ppm [8] | mortality at 2500 ppm [5] | mortality at 300 ppm [9] | mortality at 100 ppm [12]

O=C(O)c1ccc(C2=NOC(c3cc(Cl)cc(Cl)c3)(C(F)(F)F)C2)c2c1CCCC2 (centres unmarked) [Compound 3-2, 8-[5-(3,5-dichlorophenyl)-5-(trifluoromethyl)-4H-isoxazol-3-yl]tetralin-5-carboxylic acid]
≥ 75%: mortality at 2500 ppm [4]
